Where “and” joins values, the source holds several entries; their conditions need not be identical. Equal values may be shown once. Inconclusive results and toxic doses are left out. The calls were made as follows: active = survival T/C of 150% or more; inactive = T/C below 125% in these data.
Test system: CD2F1 mice, L1210 leukemia ip, survival T/C
Experiment: NCI In Vivo Anticancer Drug Screen. Data for tumor model L1210 Leukemia (intraperitoneal) in CD2F1 (CDF1) mice
Conditions: higher = longer survival
Outline: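 Mice carrying a transplanted tumor received test compound or vehicle alone. The value is the measurement in the treated group divided by that in the vehicle-treated control group.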

[1] = endpoint: mean survival time, dose: 50.0 mg/kg/injection, schedule: Q01DX009 (ip), vehicle: saline with Tween-80
[2] = endpoint: mean survival time, dose: 100.0 mg/kg/injection, schedule: Q01DX001 (ip), vehicle: saline with Tween-80
[3] = endpoint: mean survival time, dose: 100.0 mg/kg/injection, schedule: Q01DX009 (ip), vehicle: saline with Tween-80
[4] = endpoint: mean survival time, dose: 200.0 mg/kg/injection, schedule: Q01DX001 (ip), vehicle: saline with Tween-80
[5] = endpoint: mean survival time, dose: 200.0 mg/kg/injection, schedule: Q01DX009 (ip), vehicle: saline with Tween-80
[6] = endpoint: mean survival time, dose: 100.0 mg/kg/injection, schedule: Q04DX003 (ip), vehicle: saline with Tween-80
[7] = endpoint: mean survival time, dose: 200.0 mg/kg/injection, schedule: Q04DX003 (ip), vehicle: saline with Tween-80
[8] = endpoint: mean survival time, dose: 400.0 mg/kg/injection, schedule: Q04DX003 (ip), vehicle: saline with Tween-80
[9] = endpoint: mean survival time, dose: 100.0 mg/kg/injection, schedule: Q04DX002 (ip), vehicle: saline with Tween-80
[10] = endpoint: mean survival time, dose: 200.0 mg/kg/injection, schedule: Q04DX002 (ip), vehicle: saline with Tween-80
[11] = endpoint: mean survival time, dose: 400.0 mg/kg/injection, schedule: Q04DX002 (ip), vehicle: saline with Tween-80
[12] = endpoint: mean survival time, dose: 400.0 mg/kg/injection, schedule: Q01DX009 (ip), vehicle: saline with Tween-80
[13] = endpoint: mean survival time, dose: 25.0 mg/kg/injection, schedule: Q01DX009 (ip), vehicle: saline with Tween-80
[14] = endpoint: mean survival time, dose: 50.0 mg/kg/injection, schedule: Q01DX009 (ip), vehicle: saline
[15] = endpoint: mean survival time, dose: 100.0 mg/kg/injection, schedule: Q01DX009 (ip), vehicle: saline
[16] = endpoint: mean survival time, dose: 200.0 mg/kg/injection, schedule: Q01DX009 (ip), vehicle: saline
[17] = endpoint: mean survival time, dose: 12.5 mg/kg/injection, schedule: Q01DX009 (ip), vehicle: saline with Tween-80
[18] = endpoint: mean survival time, dose: 6.25 mg/kg/injection, schedule: Q04DX003 (ip), vehicle: saline with Tween-80
[19] = endpoint: mean survival time, dose: 12.5 mg/kg/injection, schedule: Q04DX003 (ip), vehicle: saline with Tween-80
[20] = endpoint: mean survival time, dose: 25.0 mg/kg/injection, schedule: Q04DX003 (ip), vehicle: saline with Tween-80

Measured: T/C

C=CCSc1ncnc2c1c1c(N)ncnc1n2C1OC(CO)C(O)C1O (centres undefined)
inactive: endpoint: mean survival time, dose: 6.25 mg/kg/injection, schedule: Q01DX005 (ip), vehicle: other 103 % of control | endpoint: mean survival time, dose: 12.5 mg/kg/injection, schedule: Q01DX005 (ip), vehicle: other 109 % of control | endpoint: mean survival time, dose: 25.0 mg/kg/injection, schedule: Q01DX005 (ip), vehicle: other 101 % of control | endpoint: mean survival time, dose: 50.0 mg/kg/injection, schedule: Q01DX005 (ip), vehicle: other 107 % of control | endpoint: mean survival time, dose: 100.0 mg/kg/injection, schedule: Q01DX005 (ip), vehicle: other 103 % of control | endpoint: mean survival time, dose: 200.0 mg/kg/injection, schedule: Q01DX005 (ip), vehicle: other 109 % of control

CC(=O)N/N=C\C1=CCC=C(Br)S1
inactive: [1] 107 % of control | [2] 93 % of control | [3] 107 % of control | [4] 102 % of control | [5] 116 % of control

COc1cccc(CNc2ncnc3nc[nH]c23)c1
inactive: [6] 92 % of control | [7] 91 % of control | [8] 97 % of control

CC(C)CCCC(C)C1CCC2C3CC(CO)C4CC(O)CCC4(C)C3CCC12C (centres undefined)
inactive: [6] 87 % of control | [7] 88 % of control

CC(C)NC(=O)Nc1ccccc1Cl
inactive: [9] 93 % of control | [10] 97 % of control | [11] 104 % of control

Cc1ccc(NC(=O)c2cccc(Cl)c2)c(C)c1
inactive: [3] 100 % of control | [6] 96 % of control | [5] 94 % of control | [7] 100 % of control | [12] 96 % of control | [8] 93 % of control

Oc1ccc(/C=N/N=C/c2ccc(O)c(O)c2)cc1O
inactive: endpoint: median survival time, dose: 25.0 mg/kg/injection, schedule: Q01DX009 (ip), vehicle: saline with Tween-80 108 % of control | endpoint: median survival time, dose: 50.0 mg/kg/injection, schedule: Q01DX009 (ip), vehicle: saline with Tween-80 110 % of control | endpoint: median survival time, dose: 100.0 mg/kg/injection, schedule: Q01DX009 (ip), vehicle: saline with Tween-80 112 % of control

Clc1nc[nH]c1Cl
inactive: [13] 97 % of control | [1] 95 % of control | [3] 97 % of control | [6] 95 % of control

COC(=O)N1C=Cc2ccccc2C1C#N (centres undefined)
inactive: endpoint: mean survival time, dose: 25.0 mg/kg/injection, schedule: Q01DX009 (ip), vehicle: saline 89 % of control | [14] 98 % of control | [15] 88 % of control

C=CC1CC2CC(C1C)C2(C)C (centres undefined)
inactive: [1] 96 % of control | [3] 100 % of control | [5] 104 % of control

O=P1(N(CCCl)CCCl)OCCC(c2ccccc2)N1Cl (centres undefined)
inactive: endpoint: mean survival time, dose: 43.75 mg/kg/injection, schedule: Q01DX001 (ip), vehicle: distilled water + Tween-80 106 % of control | endpoint: mean survival time, dose: 87.5 mg/kg/injection, schedule: Q01DX001 (ip), vehicle: distilled water + Tween-80 103 % of control | endpoint: mean survival time, dose: 175.0 mg/kg/injection, schedule: Q01DX001 (ip), vehicle: distilled water + Tween-80 106 % of control | endpoint: mean survival time, dose: 350.0 mg/kg/injection, schedule: Q01DX001 (ip), vehicle: distilled water + Tween-80 110 % of control

Brc1c(Br)c(Br)c2n[nH]nc2c1Br
inactive: [14] 104 % of control | [15] 104 % of control | [16] 108 % of control

O=C(COc1ccc(Br)cc1)Nc1cc(Cl)ccc1Cl
inactive: [9] 87 % of control | [10] 95 % of control | [11] 91 % of control

OC1C2CCC(C2)C1C(O)(C(F)(F)Cl)C(F)(F)Cl (centres undefined)
inactive: [3] 97 % of control | [5] 91 % of control | [12] 87 % of control

COc1c(NC(C)=O)cc2c(c1C)OC(C)(C)C=C2
inactive: [3] 101 % of control | [5] 98 % of control

Nc1nc(-c2cccc([N+](=O)[O-])c2)c(N=Nc2cccc([N+](=O)[O-])c2)s1
inactive: [2] 89 % of control | endpoint: mean survival time, dose: 400.0 mg/kg/injection, schedule: Q01DX001 (ip), vehicle: saline with Tween-80 90 % of control

c1cc2c3c(cccc3c1)N=S=N2
inactive: [6] 89 % of control | [7] 89 % of control | [8] 86 % of control

Cc1c(C)c(C)c2c(c1C)CCC2O (centres undefined)
inactive: [17] 102 % of control and 105 % of control | [13] 97 % of control and 94 % of control | [1] 100 % of control [middle of 4 runs]

C=C(C)CON=C(c1ccccc1)c1ccccc1
inactive: [3] 98 % of control | [5] 96 % of control | [12] 98 % of control

N#CSC/C(Br)=C/Br
inactive: [18] 97 % of control | [19] 103 % of control | [20] 92 % of control

COC(=O)c1c(C(=O)OC)c(-c2ccc(Cl)c(Cl)c2)n2c1CCC2
inactive: endpoint: mean survival time, dose: 50.0 mg/kg/injection, schedule: Q01DX009 (ip), vehicle: Klucel (hydroxypropylcellulose) (HPC) 91 % of control | endpoint: mean survival time, dose: 100.0 mg/kg/injection, schedule: Q01DX009 (ip), vehicle: Klucel (hydroxypropylcellulose) (HPC) 88 % of control | endpoint: mean survival time, dose: 200.0 mg/kg/injection, schedule: Q01DX009 (ip), vehicle: Klucel (hydroxypropylcellulose) (HPC) 98 % of control

O=C(CC(O)(C(F)(F)F)C(F)(F)F)C(=O)c1ccc([N+](=O)[O-])cc1
inactive: [3] 105 % of control | [5] 94 % of control

CC(C)CC(Br)C(=O)NCC(=O)NC(Cc1ccccc1)C(=O)O (centres undefined)
inactive: [6] 106 % of control | [7] 97 % of control | [8] 96 % of control

COC(=O)C=P(c1ccccc1)(c1ccccc1)c1ccccc1
inactive: endpoint: mean survival time, dose: 6.25 mg/kg/injection, schedule: Q01DX009 (ip), vehicle: saline with Tween-80 97 % of control | [18] 98 % of control | [17] 103 % of control | [19] 101 % of control | [13] 97 % of control and 94 % of control | [20] 95 % of control | [1] 95 % of control | [3] 100 % of control | [6] 97 % of control

CN(C)N=Nc1ccccc1C(=O)NC#N
inactive: endpoint: mean survival time, dose: 9.38 mg/kg/injection, schedule: Q01DX009 (ip), vehicle: Klucel (hydroxypropylcellulose) (HPC) 101 % of control and 103 % of control and 104 % of control

O=C(O)c1ccc2c(c1Cl)C(=O)c1ccccc1C2=O
inactive: [1] 100 % of control | [3] 103 % of control | [5] 100 % of control

CCN(CC)C(=O)c1ccccc1
inactive: [15] 98 % of control | [16] 98 % of control

CCCCCCCCCC(=O)NC(=S)Nc1ccc(C(=O)OCCCC)cc1
inactive: [2] 88 % of control | [3] 103 % of control | [9] 94 % of control and 103 % of control | [6] 90 % of control | [4] 86 % of control | [5] 92 % of control and 98 % of control | [10] 90 % of control and 100 % of control | [7] 93 % of control | [12] 89 % of control and 92 % of control | [11] 90 % of control and 91 % of control | [8] 93 % of control

COC(=O)Nc1cccc(OC(=O)N(C)C)c1
inactive: [3] 97 % of control | [5] 97 % of control | [12] 96 % of control

CCCC(=O)O.CCCC(=O)O.CCCC(=O)O.CCCC(=O)O.[Rh].[Rh]
inactive: endpoint: mean survival time, dose: 0.03 mg/kg/injection, schedule: Q01DX009 (ip), vehicle: saline + alcohol 100 % of control and 104 % of control | endpoint: mean survival time, dose: 0.06 mg/kg/injection, schedule: Q01DX009 (ip), vehicle: saline + alcohol 93 % of control and 104 % of control | endpoint: mean survival time, dose: 0.12 mg/kg/injection, schedule: Q01DX009 (ip), vehicle: saline + alcohol 96 % of control and 110 % of control | endpoint: mean survival time, dose: 0.25 mg/kg/injection, schedule: Q01DX009 (ip), vehicle: saline + alcohol 100 % of control and 104 % of control | endpoint: mean survival time, dose: 0.5 mg/kg/injection, schedule: Q01DX009 (ip), vehicle: saline + alcohol 100 % of control and 112 % of control | endpoint: mean survival time, dose: 1.0 mg/kg/injection, schedule: Q01DX009 (ip), vehicle: saline + alcohol 102 % of control and 110 % of control

CN(Cc1ccc(C(=O)NC(CCC(=O)O)C(=O)O)cc1)Cc1cnc2nc(N)nc(N)c2n1 (centres undefined)
inactive: endpoint: mean survival time, dose: 1.0 mg/kg/injection, schedule: Q01DX009 (ip), vehicle: water 96 % of control | endpoint: mean survival time, dose: 10.0 mg/kg/injection, schedule: Q01DX009 (ip), vehicle: water 114 % of control

CN=C1N[N+]2=CCCCC2S1 (centres undefined)
inactive: endpoint: mean survival time, dose: 25.0 mg/kg/injection, schedule: Q04DX003 (ip), vehicle: saline 94 % of control | endpoint: mean survival time, dose: 50.0 mg/kg/injection, schedule: Q04DX003 (ip), vehicle: saline 94 % of control

From PubChem BioAssay AID256 (DTP/NCI, 2004)
